For one experiment, the target named is T1, human PPARalpha (Homo sapiens, UniProt Q07869).
T1 construct: amino acids S167-Y468; expressed in transfected cells; host or cells: HEK (human embryo kidney) cells, stably transfected; plasmid pcDNA3
T1 sequence (Q07869 167-468): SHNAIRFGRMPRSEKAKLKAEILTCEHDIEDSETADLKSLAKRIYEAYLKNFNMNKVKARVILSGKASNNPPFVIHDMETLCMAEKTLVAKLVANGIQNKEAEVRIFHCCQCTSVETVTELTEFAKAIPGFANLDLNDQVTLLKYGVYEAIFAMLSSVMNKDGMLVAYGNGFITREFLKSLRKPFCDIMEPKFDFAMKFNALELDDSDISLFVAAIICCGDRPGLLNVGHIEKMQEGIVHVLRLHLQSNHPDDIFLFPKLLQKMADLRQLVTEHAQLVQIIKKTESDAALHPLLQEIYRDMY
The experiment is described as follows: Cellular PPARalpha assay (luciferase reporter, stably transfected HEK cell line). The class given is cell-based. The settings on record: GR-GAL4-humanPPARalpha-LBD. The method, then:
Determination of EC50 Values of PPAR Agonists in the Cellular PPARalpha Assay
(§1) The potency of substances which bind to human PPARalpha and activate it in an agonistic manner is analyzed using a stably transfected HEK cell line (HEK=human embryo kidney) which is referred to here as PPARalpha reporter cell line. It contains two genetic elements, a luciferase reporter element (pdeltaM-GAL4-Luc-Zeo) and a PPARalpha fusion protein (GR-GAL4-humanPPARalpha-LBD) which mediates expression of the luciferase reporter element depending on a PPARalpha ligand. The stably and constitutively expressed fusion protein GR-GAL4-humanPPARalpha-LBD binds in the cell nucleus of the PPARalpha reporter cell line via the GAL4 protein portion to the GAL4 DNA binding motifs 5′-upstream of the luciferase reporter element which is stably integrated in the genome of the cell line. There is only weak expression of the luciferase reporter gene in the absence of a PPARalpha ligand if fatty acid-depleted fetal calf serum (cs-FCS) is used in the assay. PPARalpha ligands bind and activate the PPARalpha fusion protein and thereby stimulate the expression of the luciferase reporter gene. The luciferase which is formed can be detected by means of chemiluminescence via an appropriate substrate.
The PPARalpha reporter cell line was prepared in two stages. Firstly, the luciferase reporter element was constructed and stably transfected into HEK cells. For this purpose, five binding sites of the yeast transcription factor GAL4 (Accession # AF264724) were cloned in 5′-upstream of a 68 bp-long minimal MMTV promoter (Accession # V01175). The minimal MMTV promoter section contains a […] and a TATA element in order to enable efficient transcription by RNA polymerase II. The cloning and sequencing of the GAL4-MMTV construct took place in analogy to the description of Sambrook J. et. al. (Molecular cloning, Cold Spring Harbor Laboratory Press, 1989). Then the complete Photinus pyralis gene (Accession # M15077) was cloned in 3′-downstream of the GAL4-MMTV element. After sequencing, the luciferase reporter element consisting of five GAL4 binding sites, MMTV promoter and luciferase gene was recloned into a plasmid which confers zeocin resistance in order to obtain the plasmid pdeltaM-GAL4-Luc-Zeo. This vector was transfected into HEK cells in accordance with the statements in Ausubel, F. M. et al. (Current protocols in molecular biology, Vol. 1-3, John Wiley & Sons, Inc., 1995).
In a second step, the PPARalpha fusion protein (GR-GAL4-humanPPARalpha-LBD was introduced into the stable cell clone described. For this purpose, initially the cDNA coding for the N-terminal 76 amino acids of the glucocorticoid receptor (Accession # P04150) was linked to the cDNA section coding for amino acids 1-147 of the yeast transcription factor GAL4 (Accession # P04386). The cDNA of the ligand-binding domain of the human PPARalpha receptor (amino acids S167-Y468; Accession # S74349) was cloned in at the 3′-end of this GR-GAL4 construct. The fusion construct prepared in this way (GR-GAL4-humanPPARalpha-LBD) was recloned into the plasmid pcDNA3 (Invitrogen) in order to enable constitutive expression therein by the cytomegalovirus promoter. This plasmid was linearized with a restriction endonuclease and stably transfected into the previously described cell clone containing the luciferase reporter element. The finished PPARalpha reporter cell line which contains a luciferase reporter element and constitutively expresses the PPARalpha fusion protein (GR-GAL4-human PPARalpha-LBD) was isolated by selection with zeocin (0.5 mg/ml) and G418 (0.5 mg/ml).
The activity of PPARalpha agonists is determined in a 3-day assay which is described below: […]

A further experiment deals with T2, human PPARdelta (Homo sapiens, UniProt Q03181).
T2 construct: amino acids S139-Y441; expressed in transfected cells; host or cells: HEK (human embryo kidney) cells, stably transfected; plasmid pcDNA3
T2 sequence (Q03181 139-441): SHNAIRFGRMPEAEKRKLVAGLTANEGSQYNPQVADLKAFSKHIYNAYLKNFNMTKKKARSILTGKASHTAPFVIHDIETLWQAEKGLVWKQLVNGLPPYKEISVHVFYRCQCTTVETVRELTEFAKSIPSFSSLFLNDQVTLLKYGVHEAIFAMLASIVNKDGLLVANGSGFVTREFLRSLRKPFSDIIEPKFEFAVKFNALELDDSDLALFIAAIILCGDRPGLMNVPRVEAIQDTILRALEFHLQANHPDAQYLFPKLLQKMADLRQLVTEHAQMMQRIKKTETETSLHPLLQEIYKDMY
The experiment in a line: Cellular PPARdelta assay (luciferase reporter, stably transfected HEK cell line). The class given is cell-based. The settings on record: GR-GAL4-humanPPARdelta-LBD. On the procedure:
Determination of EC50 Values of PPAR Agonists in the Cellular PPARdelta Assay
as §1, with “PPARdelta” for “PPARalpha”, “In analogy to the assay described for PPARalpha, the PPARdelta reporter cell line also” for “It”, “(GR-GAL4-humanPPARdelta-LBD)” for “(GR-GAL4-humanPPARalpha-LBD)”, “GR-GAL4-humanPPARdelta-LBD” for “GR-GAL4-humanPPARalpha-LBD”, “little” for “weak”, “stimulate” for “stimulate the”
The production of the stable PPARdelta reporter cell line is based on a stable HEK-cell clone which was stably transfected with a luciferase reporter element. This step was already described above in the section “construction of the PPARalpha reporter cell line”. In a second step, the PPARdelta fusion protein (GR-GAL4-humanPPARdelta-LBD was stably introduced into this cell clone. For this purpose, the cDNA coding for the N-terminal 76 amino acids of the glucocorticoid receptor (Accession # P04150) was linked to the cDNA section coding for amino acids 1-147 of the yeast transcription factor GAL4 (Accession # P04386). The cDNA of the ligand-binding domain of the human PPARdelta receptor (amino acids S139-Y441; Accession # L07592) was cloned in at the 3′-end of this GR-GAL4 construct. The fusion construct prepared in this way (GR-GAL4-humanPPARdelta-LBD) was recloned into the plasmid pcDNA3 (Invitrogen) in order to enable constitutive expression by the cytomegalovirus promoter. This plasmid was linearized with a restriction endonuclease and stably transfected into the previously described cell clone containing the luciferase reporter element. The resulting PPARdelta reporter cell line which contains a luciferase reporter element and constitutively expresses the PPARdelta fusion protein (GR-GAL4-human PPARdelta-LBD) was isolated by selection with zeocin (0.5 mg/ml) and G418 (0.5 mg/ml).
The activity of PPARdelta agonists is determined in a 3-day assay in exact analogy to the procedure already described for the PPARalpha reporter cell line except that the PPARdelta reporter cell line and a specific PPARdelta agonist was used as a standard to control test efficacy.

For experiment [1] the following is noted: diabetic animal model; cited from earlier work.
The conditions of experiment [2]: obese, insulin resistant rhesus monkeys; cited from earlier work.
For experiment [3] the following is noted: rhesus monkeys; cited from earlier work.
For experiment [4] the following is noted: cynomoigus monkeys; cited from earlier work.
For experiment [5] the following is noted: two weeks clinical trials in healthy volunteers; cited from earlier work.

Structures can show the parent of a compound that is named as a salt. Where two headings read alike, the source gives them in different places.

Turning to `Cc1cc(CCN(CC2CCOCC2)c2nc3ccc(C(F)(F)F)cc3s2)ccc1-c1noc(=O)[nH]1` [Example 9, 3-(2-Methyl-4-{2-[(tetrahydro-pyran-4-ylmethyl)-(6-trifluoromethyl-benzothiazol-2-yl)-amino]-ethyl}-phenyl)-4H-[1,2,4]oxadiazol-5-one], the EC50 on human PPARalpha is 0.06 µM; at human PPARdelta, 0.02 µM.

In the case of `COCCCN(CCc1ccc(-c2noc(=O)[nH]2)c(C)c1)c1nc2ccc(C(F)(F)F)cc2s1` [Example 14, 3-(4-{2-[(3-Methoxy-propyl)-(6-trifluoromethyl-benzothiazol-2-yl)-amino]-ethyl}-2-methyl-phenyl)-4H-[1,2,4]oxadiazol-5-one], the concentration for a half-maximal effect (EC50) was determined as 0.07 µM on human PPARalpha and 0.004 µM at human PPARdelta.

Turning to `COCCN(CCc1ccc(-c2noc(=O)[nH]2)cc1)c1nc(-c2ccc(Cl)cc2)cs1` [Example 23, 3-(4-{2-[[4-(4-Chloro-phenyl)-thiazol-2-yl]-(2-methoxy-ethyl)-amino]-ethyl}-phenyl)-4H-[1,2,4]oxadiazol-5-one], the EC50 on human PPARalpha worked out at 0.82 µM; at human PPARdelta, 0.65 µM.

As for `CCCCN(Cc1ccc(-c2noc(=O)[nH]2)c(F)c1)c1nc2ccc(C(F)(F)F)cc2s1` [Example 24, 3-(4-{[Butyl-(6-trifluoromethyl-benzothiazol-2-yl)-amino]-methyl}-2-fluoro-phenyl)-4H-[1,2,4]oxadiazol-5-one], the results for the EC50 at human PPARalpha and on human PPARdelta were 1.35 µM and 0.27 µM, respectively.

Take `COCCN(Cc1ccc(-c2noc(=O)[nH]2)c(F)c1)c1nc2ccc(C(F)(F)F)cc2s1` [Example 28, 3-(2-Fluoro-4-{[(2-methoxy-ethyl)-(6-trifluoromethyl-benzothiazol-2-yl)-amino]-methyl}-phenyl)-4H-[1,2,4]oxadiazol-5-one]: the values for the EC50 at human PPARalpha and on human PPARdelta were 1.02 µM and 0.06 µM, respectively.

As for `CN(C)CCN(Cc1ccc(-c2noc(=O)[nH]2)c(C(F)(F)F)c1)c1nc2ccc(C(F)(F)F)cc2s1` [Example 33, 3-(4-{[(2-Dimethylamino-ethyl)-(6-trifluoromethyl-benzothiazol-2-yl)-amino]-methyl}-2-trifluoromethyl-phenyl)-4H-[1,2,4]oxadiazol-5-one trifluoroacetate], the concentration for a half-maximal effect (EC50) was found to be 1.1 µM at human PPARalpha and 1.8 µM at human PPARdelta.

On to `COCCCN(Cc1ccc(-c2noc(=O)[nH]2)c(F)c1)c1nc(-c2ccc(Cl)cc2)cs1` [Example 39, 3-(4-{[[4-(4-Chloro-phenyl)-thiazol-2-yl]-(3-methoxy-propyl)-amino]-methyl}-2-fluoro-phenyl) -4H-[1,2,4]oxadiazol-5-one], for which the concentration giving a half-maximal response (EC50) at human PPARalpha came out at 0.36 µM; on human PPARdelta, 0.2 µM.

As for `CCCc1c(OCCCOc2ccc(OCC(=O)O)cc2)ccc(C(C)=O)c1O` [Example L-165041], in experiment [1], the plasma cholesterol result is recorded as “raises”.

Regarding `Cc1cc(SCc2sc(-c3ccc(C(F)(F)F)cc3)nc2C)ccc1OCC(=O)O` [GW501516], in experiment [2], the HDL-cholesterol entry is “raises”, the insulin levels entry is “decreases”, the “plasma LDL-cholesterol” value is given as “decreases” and the plasma triglycerides entry is “decreases”.

For `CCCc1c(OCCCSc2nnc(SCC(=O)O)s2)ccc(C(C)=O)c1O` [YM-16638], the figures for the plasma lipids entry in experiment [3], in experiment [4] and in experiment [5] were “significantly lowers”, “significantly lowers” and “acts in a similar manner”, respectively.

Source of the values: patent US7655679B2, “Derivatives of 2-aminothiazoles and 2-amino-oxazoles, processes for their preparation and their use as pharmaceutical compositions” (Sanofi-Aventis, priority 2005, dated 2010).
